Measured values from ChEMBL document CHEMBL1201862, “PubChem BioAssay data set” (2004).
The source made the active and inactive calls.

How the values were obtained:
[1] = inhibitors of Vif binding to APOBEC3G peptide, primary screen, biochemical, TR-FRET, GST-Vif 1-94, biotin-A3G peptide, dose response retest (AID 1117319); type: functional;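 also: TR-FRET signal of purified GST-Vif binding a biotinylated A3G peptide; inhibitors lower the FRET signal by blocking Vif and A3G binding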
[2] = inhibitors of PGC1a acetylation in cells, dose response, cell-based, cherry-picked samples (AID 720514); type: functional;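 also: potency may reflect raised or lowered acetylation signal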
[3] = molecular target: T1, RNA-binding protein pos-1 (Caenorhabditis elegans, UniProt G5EF15); test: inhibitors of POS-1/mex-3 RNA binding, dose response, biochemical, fluorescence polarization (AID 1964);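 also: purified POS-1 fused to maltose binding protein made in E. coli; potency of compounds blocking POS-1 binding to fluorescent RNA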
T1 sequence (G5EF15 whole entry): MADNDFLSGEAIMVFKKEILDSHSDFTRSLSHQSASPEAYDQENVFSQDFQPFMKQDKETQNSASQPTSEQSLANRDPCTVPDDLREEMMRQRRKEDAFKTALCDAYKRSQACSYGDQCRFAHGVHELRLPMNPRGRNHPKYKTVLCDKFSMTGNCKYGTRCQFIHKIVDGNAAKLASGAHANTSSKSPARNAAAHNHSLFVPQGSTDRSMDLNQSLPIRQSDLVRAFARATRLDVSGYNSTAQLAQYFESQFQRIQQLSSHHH

Nonstructural protein 1 = Nonstructural protein 1 (Influenza A virus, UniProt Q194T2); type: functional, Influenza A virus (A/California/07/2009(H1N1))
Caspase-6 = molecular target: T2, Caspase-6 (Homo sapiens, UniProt P55212); test: human caspase-6 inhibitors, dose response, biochemical, VEID-R110 fluorescence, cherry-pick (AID 720632)
T2 sequence (P55212 whole entry): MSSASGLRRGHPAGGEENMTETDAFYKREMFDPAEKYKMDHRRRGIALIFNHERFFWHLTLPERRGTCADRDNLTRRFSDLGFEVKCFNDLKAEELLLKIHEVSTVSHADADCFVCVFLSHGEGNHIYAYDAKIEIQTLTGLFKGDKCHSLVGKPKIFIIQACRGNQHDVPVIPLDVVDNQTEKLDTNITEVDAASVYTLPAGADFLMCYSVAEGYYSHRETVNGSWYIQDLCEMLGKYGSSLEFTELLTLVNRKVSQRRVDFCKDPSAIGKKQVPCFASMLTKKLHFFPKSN

Genome polyprotein = Genome polyprotein (dengue virus type 2, UniProt P29990); test: Dengue-2 NS5 methyltransferase inhibitors, primary screen, biochemical, confirmation dose response (AID 588689); type: functional
[4] = molecular target: T3, Carboxy-terminal domain RNA polymerase II polypeptide A small phosphatase 1 (Homo sapiens, UniProt Q9GZU7); test: inhibitors of CTDSP1, concentration-response testing, biochemical assay, absorbance-based, actives from ultra-high-throughput screening (AID 540297); type: functional
T3 sequence (Q9GZU7 whole entry): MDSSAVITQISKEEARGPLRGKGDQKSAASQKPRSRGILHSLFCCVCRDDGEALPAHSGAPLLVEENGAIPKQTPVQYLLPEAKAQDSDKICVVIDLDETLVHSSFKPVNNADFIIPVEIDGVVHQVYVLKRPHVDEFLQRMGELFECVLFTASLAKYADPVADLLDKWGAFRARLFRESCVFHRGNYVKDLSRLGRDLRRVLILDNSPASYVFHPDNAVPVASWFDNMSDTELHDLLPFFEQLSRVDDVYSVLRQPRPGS

[5] = molecular target: FAD-linked sulfhydryl oxidase ALR (Homo sapiens, UniProt P55789); test: inhibitors of human ALR sulfhydryl oxidase, dose response, biochemical, H2O2 detection, luminescence, cherry-pick (AID 493248)
[6] = molecular target: T4, Mannose-6-phosphate isomerase (Homo sapiens, UniProt P34949); test: human PMI inhibitors, high substrate, primary screen, biochemical, fluorescence intensity, high mannose 6-phosphate (AID 1220)
T4 sequence (P34949 whole entry): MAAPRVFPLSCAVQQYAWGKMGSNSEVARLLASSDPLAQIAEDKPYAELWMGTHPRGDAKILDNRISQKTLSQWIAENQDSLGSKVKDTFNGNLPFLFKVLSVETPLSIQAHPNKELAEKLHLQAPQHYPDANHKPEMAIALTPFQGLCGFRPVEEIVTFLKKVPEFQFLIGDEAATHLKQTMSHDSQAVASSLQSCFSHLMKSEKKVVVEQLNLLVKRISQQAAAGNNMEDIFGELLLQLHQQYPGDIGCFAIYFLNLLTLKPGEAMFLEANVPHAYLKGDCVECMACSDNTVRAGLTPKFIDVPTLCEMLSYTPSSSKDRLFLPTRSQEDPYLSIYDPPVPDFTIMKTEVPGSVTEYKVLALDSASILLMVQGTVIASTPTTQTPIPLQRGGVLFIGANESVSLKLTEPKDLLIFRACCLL

[7] = inhibitors of SNCA 5'UTR-driven reporter translation, confirmation, H4 neuroglioma cells, luminescence (AID 1988); type: functional, cell-based
[8] = Shn3 3'UTR reporter inhibitors, dose response, cell-based, Clone20 osteoblasts, firefly luciferase, cherry-picked (AID 624132); type: functional;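 also: firefly luciferase luminescence from reporter carrying the Shn3 3'UTR in osteoblasts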
[9] = Luminescence Cell-Based Dose Response HTS to Identify Inhibitors of 5'UTR Stem-Loop Driven Prion Protein mRNA Translation in H4 Neuroglioblastoma Cells. [Related pubchem assays: 1827 (Project Summary), 1813 (Primary HTS)]; type: functional
[10] = HepG2 cell cytotoxicity, dose response, cytotoxicity control for Shn3 inhibitor project, CellTiter-Glo, cherry-picked (AID 624134); type: functional, cell-based
[11] = inhibitors of firefly luciferase expression or activity, dose response, H4 neuroglioma cells, luminescence (AID 1990); type: functional, cell-based
[12] = molecular target: NAD-dependent protein deacylase sirtuin-5, mitochondrial (Homo sapiens, UniProt Q9NXA8); test: SIRT5 desuccinylase inhibitors, dose response, biochemical, fluorescence imaging, cherry-pick, set 5 (AID 720591);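 also: desuccinylation of succinyl peptide AMC substrate read as fluorescence after trypsin release; potency of inhibitors that lower fluorescence and may act on trypsin instead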
[13] = NIH-3T3 fibroblast cytotoxicity, dose response, cytotoxicity control, cell-based, fluorescence, Alamar Blue, secondary assay (AID 2327); type: functional;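 also: NIH-3T3 mouse fibroblasts cultured with fluconazole at 8 µg/mL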
[14] = C. albicans growth with fluconazole, confirmation, fluorescence, retest (AID 2467); type: functional, cell-based
[15] = molecular target: Protein-tyrosine kinase 2-beta (Homo sapiens, UniProt Q14289);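 also: potency of inhibitors of PYK2 kinase phosphorylation of poly-GT substrate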
Chain of Protein-tyrosine kinase 2-beta (Q14289 whole entry): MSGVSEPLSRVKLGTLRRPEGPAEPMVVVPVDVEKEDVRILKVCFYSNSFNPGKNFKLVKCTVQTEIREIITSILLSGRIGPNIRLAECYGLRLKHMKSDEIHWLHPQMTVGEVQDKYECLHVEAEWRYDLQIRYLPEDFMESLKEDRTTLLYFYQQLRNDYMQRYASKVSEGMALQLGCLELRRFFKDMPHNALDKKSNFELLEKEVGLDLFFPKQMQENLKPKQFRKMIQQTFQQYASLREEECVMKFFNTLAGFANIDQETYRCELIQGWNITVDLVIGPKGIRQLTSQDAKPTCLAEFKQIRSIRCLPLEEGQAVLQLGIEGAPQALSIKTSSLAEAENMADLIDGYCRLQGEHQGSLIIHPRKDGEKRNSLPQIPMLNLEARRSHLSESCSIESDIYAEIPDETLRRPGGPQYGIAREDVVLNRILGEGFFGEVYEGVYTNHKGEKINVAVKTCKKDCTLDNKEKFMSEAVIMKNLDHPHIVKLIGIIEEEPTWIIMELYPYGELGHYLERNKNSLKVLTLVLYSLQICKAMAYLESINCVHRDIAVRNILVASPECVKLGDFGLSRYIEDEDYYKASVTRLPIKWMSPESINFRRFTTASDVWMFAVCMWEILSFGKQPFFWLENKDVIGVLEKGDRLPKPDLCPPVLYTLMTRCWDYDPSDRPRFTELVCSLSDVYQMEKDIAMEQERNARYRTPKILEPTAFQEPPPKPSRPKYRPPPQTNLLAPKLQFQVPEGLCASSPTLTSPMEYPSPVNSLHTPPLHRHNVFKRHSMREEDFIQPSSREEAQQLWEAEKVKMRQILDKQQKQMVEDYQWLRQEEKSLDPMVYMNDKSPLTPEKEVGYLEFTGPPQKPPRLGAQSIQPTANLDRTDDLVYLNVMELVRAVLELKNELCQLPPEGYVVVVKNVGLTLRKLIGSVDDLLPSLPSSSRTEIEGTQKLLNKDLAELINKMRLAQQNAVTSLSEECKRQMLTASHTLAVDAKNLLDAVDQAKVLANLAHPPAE

Chain of NAD-dependent protein deacylase sirtuin-5, mitochondrial (Q9NXA8 whole entry): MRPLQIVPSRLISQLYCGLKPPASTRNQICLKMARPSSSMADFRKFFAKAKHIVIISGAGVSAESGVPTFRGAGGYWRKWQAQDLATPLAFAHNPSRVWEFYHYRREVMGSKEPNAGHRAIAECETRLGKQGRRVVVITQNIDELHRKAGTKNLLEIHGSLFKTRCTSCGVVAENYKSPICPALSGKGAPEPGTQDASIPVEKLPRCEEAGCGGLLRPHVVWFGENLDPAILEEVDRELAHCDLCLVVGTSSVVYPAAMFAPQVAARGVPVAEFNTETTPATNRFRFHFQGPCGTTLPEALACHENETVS
Chain of Genome polyprotein (P29990 2492-3391 limits assumed): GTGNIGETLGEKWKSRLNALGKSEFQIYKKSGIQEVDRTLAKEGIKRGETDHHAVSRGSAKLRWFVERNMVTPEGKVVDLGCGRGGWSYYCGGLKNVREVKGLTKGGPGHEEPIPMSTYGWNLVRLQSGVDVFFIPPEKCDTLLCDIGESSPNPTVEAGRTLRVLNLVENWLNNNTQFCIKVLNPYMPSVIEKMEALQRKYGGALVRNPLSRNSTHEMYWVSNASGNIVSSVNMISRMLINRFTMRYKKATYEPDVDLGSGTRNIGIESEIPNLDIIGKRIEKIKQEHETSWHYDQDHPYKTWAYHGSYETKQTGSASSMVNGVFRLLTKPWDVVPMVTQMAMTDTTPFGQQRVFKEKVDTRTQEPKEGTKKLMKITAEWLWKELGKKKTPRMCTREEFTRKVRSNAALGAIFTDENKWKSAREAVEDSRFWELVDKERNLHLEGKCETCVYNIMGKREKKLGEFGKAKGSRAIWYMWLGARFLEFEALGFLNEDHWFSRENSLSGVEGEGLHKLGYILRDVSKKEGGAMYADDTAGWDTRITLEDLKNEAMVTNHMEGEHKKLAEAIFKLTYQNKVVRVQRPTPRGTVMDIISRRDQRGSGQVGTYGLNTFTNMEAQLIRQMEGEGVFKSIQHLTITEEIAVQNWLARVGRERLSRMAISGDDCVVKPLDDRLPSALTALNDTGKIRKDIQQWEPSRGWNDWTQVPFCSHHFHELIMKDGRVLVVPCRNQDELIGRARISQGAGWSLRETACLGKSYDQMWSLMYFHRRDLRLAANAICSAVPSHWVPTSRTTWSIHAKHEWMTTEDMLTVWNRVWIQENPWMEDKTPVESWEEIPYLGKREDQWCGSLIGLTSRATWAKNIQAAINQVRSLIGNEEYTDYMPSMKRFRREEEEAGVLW
Chain of Nonstructural protein 1 (Q194T2 whole entry): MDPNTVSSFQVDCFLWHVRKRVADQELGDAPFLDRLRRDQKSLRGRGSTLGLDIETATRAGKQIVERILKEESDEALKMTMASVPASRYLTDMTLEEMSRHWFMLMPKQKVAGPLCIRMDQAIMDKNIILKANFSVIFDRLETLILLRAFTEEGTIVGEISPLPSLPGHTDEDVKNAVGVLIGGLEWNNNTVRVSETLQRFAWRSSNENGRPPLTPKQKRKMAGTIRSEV
Chain of FAD-linked sulfhydryl oxidase ALR (P55789 whole entry): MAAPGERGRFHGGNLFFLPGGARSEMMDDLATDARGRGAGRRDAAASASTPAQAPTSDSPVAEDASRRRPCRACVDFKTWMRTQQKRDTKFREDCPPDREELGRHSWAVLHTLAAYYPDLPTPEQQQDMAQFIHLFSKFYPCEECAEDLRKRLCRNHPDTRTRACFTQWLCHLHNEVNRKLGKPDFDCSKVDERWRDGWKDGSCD

COc1cc(/C=C(\C#N)c2nc3ccccc3[nH]2)c([N+](=O)[O-])cc1OCc1ccccc1
IC50 [1]: > 100 µM (active)

COc1ccc(-n2c(SCC#N)nnc2-c2cccnc2)cc1
AC50 [2]: 16.7 µM (active)

Oc1ccc(/C=N/Nc2ccc(Cl)nn2)c(O)c1O
EC50 [3]: 50 µM (inconclusive) | IC50 (Nonstructural protein 1): 2.08 µM (active) | AC50 (Caspase-6): 1.1 µM (active) | IC50 (Genome polyprotein): 16.4 µM (active)

CSc1ccc(NC(=O)Nc2ccc(C(=O)NCC(=O)O)cc2)cc1
IC50 [4]: 3.17 µM (active) | AC50 [5]: 2.47 µM (active) | AC50 (Caspase-6): 18.4 µM (active)

Cc1cc(C)[n+]2ncn(C)c2n1
IC50 [6]: > 50 µM (not active)

C[C@H]1CN([C@@H](C)CO)S(=O)(=O)c2ccc(-c3ccccc3)cc2O[C@@H]1CN(C)Cc1cccc(F)c1
AC50 [2]: 7.93 µM (active)

COc1ccc(CNc2cc(NCCCO)c([N+](=O)[O-])c3nonc23)cc1
IC50 [6]: > 50 µM (not active)

CC(C)CC(NC(=O)c1ccc(Cl)cc1)C(=O)OCC(=O)c1ccc2c(c1)NC(=O)CO2 (stereo unspecified)
EC50 [7]: 4.38 µM (active) | AC50 [8]: 4.01 µM (active) | AC50 [2]: 6.45 µM (active) | EC50 [9]: 2.69 µM (active) | AC50 [10]: 15.5 µM (active) | EC50 [11]: 6.2 µM (active)

O=C(O)c1ccc(Nc2nc(-c3ccccc3)nc3ccccc23)cc1
AC50 [12]: 17.9 µM (active)

CC(=O)c1c(C)[nH]c(C(=O)Nc2ccc(C)c(C)c2)c1C
IC50 [1]: > 100 µM (active) | EC50 [13]: 72.3 µM (active) | EC50 [14]: > 38 µM (not active)

COc1ccc(-c2ccc3c(N)c(C(=O)c4ccc(OC)c(OC)c4)sc3n2)cc1
IC50 [15]: 4.28 µM (active)

COc1ccc(NS(=O)(=O)c2cccc(C(=O)N3CCCC(C)C3)c2)cc1 (stereo unspecified)
AC50 [12]: 28.4 µM (active)

CC(C(=O)Nc1ccc(S(=O)(=O)N2CCOCC2)cc1)N1CCN(c2ccccn2)CC1 (stereo unspecified)
AC50 [12]: > 30 µM (inactive)

c1ccc(Nc2ccccn2)cc1
IC50 [1]: > 100 µM (active)
